# pIC50: −log10 of the molar value. Counter-ions that a name gives are not always drawn. Like-named read-outs stand apart in the source and are kept apart here.
# Legend:
# L1210 cells = test: L1210 murine leukemia cell growth inhibition in vitro; assay type: cell-based; settings: Mus musculus, 72 h
# Description: Another test protocol uses L1210 cells, a murine leukemia cell line, grown in RPMI 1640 supplemented with 5% fetal bovine serum and gentamicin ([…]). Drug dilutions are prepared in the appropriate solvent and 20 µl of each dilution are added to 24-well Linbro tissue culture plates, followed by the addition of 2.0 ml of cell suspension containing 3 x 10^4 cells per ml. Solvent and medium controls are included in each test. After incubation at 37°C forthree days in 5% C02, the contents of each well are removed and the cells counted in a ZBI Coulter counter. Percent growth are calculated relative to the controls and the levels of drug activity are expressed as ID50 in moles per liter.
# [1] = test system: lymphocytic leukemia P388; test: in vivo lymphocytic leukemia P388 test; parameters: species or system mice; settings: Mus musculus, P388, ip, 120 h, read-out: P388 in vivo T/C × 100; for response vs control in vivo at 25 mg/kg: Dose 25.00 mg/kg intraperitoneally once daily for five days; for response vs control in vivo at 6.25 mg/kg: Dose 6.25 mg/kg intraperitoneally once daily for five days; for response vs control in vivo at 12.5 mg/kg: Dose 12.50 mg/kg intraperitoneally once daily for five days; for response vs control in vivo at 100 mg/kg: Dose 100.00 mg/kg intraperitoneally once daily for five days; for response vs control in vivo at 3.12 mg/kg: Dose 3.12 mg/kg intraperitoneally once daily for five days; for response vs control in vivo at 50 mg/kg: Dose 50.00 mg/kg intraperitoneally once daily for five days
# Description: Another test protocol is the in vivo lymphocytic leukemia P388 test. The animals used are either male or female CD2F, mice. There are six or seven animals per test group. The tumor transplant is by intraperitoneal injection of dilute ascitic fluid containing cells of lymphocytic leukemia P388. The test compounds are administered intraperitoneally once daily for five consecutive days at various doses following tumor inoculation. The animals are weighed and survivors are recorded on a regular basis for 30 days. A compound is designated "toxic" if, at a given dose, all animals died prior to four days after the first injection of drug. A ratio of survival time for treated (T)/control (C) animals is calculated. A criterion for efficacy is a ratio T/C times 100 greater than or equal to 125. See Cancer Chemotherapy Reports, Part 3, 3; 1 (1972) for a comprehensive discussion of the protocol.
# HCT-8 cells = test: in vitro proliferating human colon adenocarcinoma (HCA) cell screen; assay type: cell-based
# Description: One test protocol is the in vitro proliferating human colon adenocarcinoma (HCA) cell screen. In this test, HCT-8 cells (HCA cell line received from Yale University) are trypsinized using trypsin-EDTA. A single cell suspension is achieved by passing the cells through a 26 gauge needle with a 20 cc syringe. A cell suspension is prepared using RPMI 1640 + 10% FCS + 50) g/ml gentamicin sulfate with a cell concentration of approximately 30,000 cells/ml. The cell suspension is dispensed in Linbro 24-well plates; 1 ml/well. The plates are incubated for approximately 48 hours at 37°C in a 5% C02 atmosphere. At this time test compounds are added in the appropriate concentration. Five µl of the 200 µg/ml stock solution is added to each well in primary test. Ten µl of the appropirate dilution is added to each well for a titration test. The plates are re-incubated an additional 60 to 65 hours at 37°C in a 5% C02 atmosphere. The cells are lysed using a mix of cationic surfactant, glacial acetic acid, and sodium chloride. Two ml of the lysed cell suspension from each well is added to 8 ml of diluent. The number of nuclei is determined using a Coulter counter (ZBI model), and a percent growth for each drug concentration is calculated. From this, an ID50 molar concentration of a compound (that results in 50% inhibition of growth) is determined.
# [2] = test system: Penicillium avellaneum M2988; test: in vitro antibacterial/antifungal (ABF) agar-disk diffusion test; assay type: cell-based; settings: Hamigera avellanea, 3 mg/ml, read-out: ABF Zone Diameter (cont. in mg/ml) P. Avell-aneum
# Description: (§1) Still another test protocol is the in vitro antibacterial/antifungal (ABF) test. Compounds are tested for antimicrobial activity in an agar-disk diffusion assay, a standard microbiological technique for testing antibiotics'. After incubation of each culture with a test compound, a zone of inhibition is determined. The zone diameter (mm) of active compounds ranges from a minimum of 13.5 mm to as high as 60 mm, with a greater diameter reflecting higher activity. For convenience, values are reported for two gram-negative bacteria (Aerobacter aerogenes 0126 and Escherichia coli 04863), two gram-positive bacteria (Bacillus subtilis 04555 and Streptococcus faecalis 05045 utilizing AM-09 medium), and one mycelial fungus (Penicillium avellaneum M2988).
# [3] = test system: Streptococcus faecalis 05045; test: as above; assay type: cell-based; settings: Enterococcus faecalis, AM-09 medium, 3 mg/ml, read-out: ABF Zone Diameter (cont. in mg/ml) S. Fae-calis
# Description: as §1
# Bacillus subtilis 04555 = test: as above; assay type: cell-based; settings: 0.1 mg/ml, read-out: ABF Zone Diameter (cont. in mg/ml) B. Sub-tilis
# Description: as §1
# Escherichia coli 04863 = test: as above; assay type: cell-based; settings: 0.1 mg/ml, read-out: ABF Zone Diameter (cont. in mg/ml) E. Coli
# Description: as §1
# [4] = test system: Aerobacter aerogenes 0126; test: as above; assay type: cell-based; settings: Klebsiella aerogenes, 0.1 mg/ml, read-out: ABF Zone Diameter (cont. in mg/ml) A. Aero-genes
# Description: as §1
# [5] = Table 2, three days incubation, read-out: L1210 in vitro IC50
# [6] = Table 2, 60 to 65 hours with compound, read-out: HCA—3 in vitro IC50
# [7] = Table 1, three days incubation, 50% inhibition of growth, read-out: L1210 in vitro ID50
# [8] = Table 1, 60 to 65 hours with compound, 50% inhibition of growth, read-out: HCA—3 in vitro ID50
SMILES,pIC50 (L1210 cells; [7]),pIC50 (HCT-8 cells; [8]),pIC50 (L1210 cells; [5]),response vs control in vivo at 25 mg/kg [1] [%],pIC50 (HCT-8 cells; [6]),response vs control in vivo at 12.5 mg/kg [1] [%],further results
"CCN(CC)CCn1nc2c3c(c(NCCNCCO)ccc31)Sc1ccc(OC)cc1-2 [2-[[2-[[2-(2-(Diethylamino)ethyl]-9-methoxy-2H[1]benzothiopyrano[4,3,2-cd]indazol-5-yl]amino]ethyl]amino]ethanol]",–,–,6.70,177,6.64,–,–
"CN(C)CCCn1nc2c3c(c(NCCN)ccc31)Sc1ccccc1-2 [(CH2)3N(CH3)2 / NHCH2CH2NH2, N-[2-[3-(dimethylamino)propyl]-2H[1]benzothiopyrano[4,3,2-cd]indazol-5-yl]-1,2-ethanediamine]",7.54,6.89,–,–,–,298,response vs control in vivo at 6.25 mg/kg [1]: 185%
"CN(C)CCCn1nc2c3c(c([N+](=O)[O-])ccc31)Sc1ccccc1-2 [CH2CH2CH2N(CH3)2 / NO2, N,N dimethyl-5-nitro-2H[1]benzothiopyrano[4,3,2-cd]indazole-2-propanamine]",6.72,6.68,–,121,–,–,response vs control in vivo at 100 mg/kg [1]: 141%
"CCN(CC)CCn1nc2c3c(c(N)ccc31)Sc1ccc(O)cc1-2 [CH2CH2N(C2H5)2 / NH2 / 9-OH, 5-Amino-2-[2-(diethylamino)ethyl]-2H[1]benzothiopyrano[4,3,2-cd]indazol-9-ol]",–,–,7.92,–,7.55,–,response vs control in vivo at 6.25 mg/kg [1]: 238%
CCN(CC)CCn1nc2c3c(c(NCCCN)ccc31)Sc1ccccc1-2 [CH2CH2N(C2H5)2 / NHCH2CH2CH2NH2],6.54,6.06,–,169,–,154,response vs control in vivo at 3.12 mg/kg [1]: 132%; response vs control in vivo at 6.25 mg/kg [1]: 142%
CCN(CC)CCn1nc2c3c(c(NCCN)ccc31)Sc1ccc(OC)cc1-2 [CH2CH2N(C2H5)2 / NHCH2CH2NH2 / 9-OCH3],–,–,6.68,–,6.54,177,–
"CCN(CC)CCn1nc2c3c(c([N+](=O)[O-])ccc31)Sc1c(OC)ccc(OC)c1-2 [CH2CH2N(C2H5)2 / NO2 / 7,10-(OCH3)2, N,N-Diethyl-7,10-dimethoxy-5-nitro-2H[1]benzothiopyrano[4,3,2-cd]indazol-2-ethanamine]",–,–,5.89,–,6.30,–,–
"CCN(CC)CCn1nc2c3c(c([N+](=O)[O-])ccc31)Sc1c(O)ccc(O)c1-2 [CH2CH2N(C2H5)2 / NO2 / 7,10-(OH)2]",–,–,5.77,–,–,–,–
"CCN(CC)CCn1nc2c3c(c([N+](=O)[O-])ccc31)Sc1c(OC)ccc(O)c1-2 [CH2CH2N(C2H5)2 / NO2 / 7-OCH3, 10-OH, 2-[2-(diethylamino)-ethyl]-7-methoxy-5-nitro-2H[1]benzothiopyrano[4,3,2-cd]indazol-10-ol]",–,–,6.00,–,6.38,–,–
"CCN(CC)CCn1nc2c3c(c(NCCN4CCOC4=O)ccc31)Sc1ccc(OC)cc1-2 [CH2CH2N(C2H5)2 / [drawing] / 9-OCH3, 3-[2-[[2-[2-(Diethylamino)ethyl]-9-methoxy-2H[1]benzothiopyrano[4,3,2-cd]indazol-5-yl]amino]ethyl]-2-oxazolidinone]",–,–,–,–,6.00,–,response vs control in vivo at 100 mg/kg [1]: 220%
"CCN(CC)CCn1nc2c3c(c(NCCN4CCOC4=O)ccc31)Sc1ccc(O)cc1-2 [CH2CH2N(C2H5)2 / [drawing] / 9-OH, 3-[2-[[2-[2-(diethylamino)ethyl]-9-hydroxy-2H[1]benzothiopyrano[4,3,2-cd]indazol-5-yl]amino]ethyl]-2-oxazolidinone]",–,–,8.26,–,7.62,175,–
NCCn1nc2c3c(c([N+](=O)[O-])ccc31)Sc1ccccc1-2 [CH2CH2NH2 / NO2 / >300],–,–,–,187,–,136,–
CCNCCn1nc2c3c(c([N+](=O)[O-])ccc31)Sc1ccccc1-2 [CH2CH2NHC2H5 / NO2 / C17H16N4O2S·HCl],7.62,6.85,–,–,–,187,–
CCNCCn1nc2c3c(c(N)ccc31)Sc1ccccc1-2 [CH2CH2NHC2H5 / NO2 / C17H18N4S·2HCl],7.15,6.52,–,–,–,188,–
"CCN(CC)CCn1nc2c3c(c(N)ccc31)Sc1ccc(OC)cc1-2 [CH2CH2NHCH2CH2OH / NH2 / 9-OCH3, 5-Amino-N,N-diethyl-9-methoxy-2H[1]benzothiopyrano[4,3,2-cd]indazole-2-ethanamine]",–,–,5.80,–,–,–,response vs control in vivo at 50 mg/kg [1]: 154%
"CCN(CC)CCNc1ccc2c3c(nn2CCNCCO)-c2ccccc2Sc13 [CH2CH2NHCH2CH2OH / NHCH2CH2N(C2H5)2, 2-[[2-[5-[[2-(Diethylamino)ethyl]amino]-2H[1]benzothiopyrano[4,3,2-cd]indazol-2-yl]ethyl]amino]ethanol]",6.62,6.35,–,147,–,135,response vs control in vivo at 3.12 mg/kg [1]: 134%; response vs control in vivo at 6.25 mg/kg [1]: 137%
"CCN(CC)CCn1nc2c3c(c([N+](=O)[O-])ccc31)Sc1ccc(OC)cc1-2 [CH2CH2NHCH2CH2OH / NO2 / C20H22N4O3S, N,N-Diethyl-9-methoxy-5-nitro-2H[1]benzothiopyrano[4,3,2-cd]indazole-2-ethanamine]",–,–,6.19,209,–,142,–

# Now from value to molecule, other results behind:
pIC50 (L1210 cells; [7]),pIC50 (HCT-8 cells; [8]),SMILES,pIC50 (L1210 cells; [5]),response vs control in vivo at 25 mg/kg [1] [%],pIC50 (HCT-8 cells; [6]),response vs control in vivo at 12.5 mg/kg [1] [%],further results
6.72,6.42,"CCN(CC)CCn1nc2c3c(c(NC(=O)CCl)ccc31)Sc1ccccc1-2 [CH2CH2N(C2H5)2 / NHCOCH2Cl, 2-Chloro-N-[2-[2-(diethylamino)ethyl]-2H[1]benzothiopyrano[4,3,2-cd]indazol-5-yl]acetamide]",–,124,–,–,response vs control in vivo at 50 mg/kg [1]: 165%
–,6.70,"NCCn1nc2c3c(c([N+](=O)[O-])ccc31)Sc1ccccc1-2 [CH2CH2NH2 / NO2 / 199—203, 5-Nitro-2H[1]benzothiopyrano[4,3,2-cd]indazole-2-ethanamine]",–,–,–,–,zone of inhibition at 3000 µg/mL [2]: 0 mm; zone of inhibition at 3000 µg/mL [3]: 0 mm; zone of inhibition at 100 µg/mL (Bacillus subtilis 04555): 17 mm; zone of inhibition at 100 µg/mL (Escherichia coli 04863): 15 mm; zone of inhibition at 100 µg/mL [4]: 18 mm
